Patent US5663175A, “Prodrugs of herpes TK inhibitors” (Merck & Co. Inc., priority 1994, dated 1997)

Target: herpes thymidine kinase (Human herpesvirus 1, UniProt P0DTH5)
Assay: Assay for inhibition of herpes thymidine kinase
Assay type: biochemical
Procedure: The assay mixture contains in a final volume of 110 microliters the following: 50 mM Tris-HCl, pH 7.5; 5 mM MgCl2; 5 mM ATP; 2 mM dithiothreitol (DTT); 2.5 mM KF; 0.25 mg/ml bovine serum albumin (BSA); […] thymidine labeled with either ^14 C or ^3 H; the compound being tested as inhibitor; and the viral thymidine kinase. The amount of enzyme, incubation time and temperature are adjusted so that no more than 20% of the substrate is converted to product in a reaction without inhibitor. At the end of the incubation period, 100 microliters of the assay mixture are spotted on a 25 mm disk of DEAE paper. The disks are washed three times with ethanol to remove unreacted thymidine and the amount of thymidine monophosphate produced is determined by scintillation counting of the disks. The results (in IC50) are calculated to give the concentration of inhibitor resulting in 50% inhibition of enzyme. The IC50 of L-58,340 is about 100 nM.

herpes thymidine kinase, sequence (P0DTH5 whole entry): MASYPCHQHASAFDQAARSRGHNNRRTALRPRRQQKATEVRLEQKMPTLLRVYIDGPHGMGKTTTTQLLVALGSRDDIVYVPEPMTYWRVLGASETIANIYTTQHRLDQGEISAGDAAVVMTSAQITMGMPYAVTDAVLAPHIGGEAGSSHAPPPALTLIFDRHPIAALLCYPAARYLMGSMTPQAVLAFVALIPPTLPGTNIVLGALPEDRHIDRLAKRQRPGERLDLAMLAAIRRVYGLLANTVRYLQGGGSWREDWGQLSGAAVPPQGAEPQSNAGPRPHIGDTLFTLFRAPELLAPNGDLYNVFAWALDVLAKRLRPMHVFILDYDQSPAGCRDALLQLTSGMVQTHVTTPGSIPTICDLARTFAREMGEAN

SMILES: Nc1nc2c(ncn2C[C@H]2CCCC[C@H]2CO)c(=O)[nH]1 [L-758,340, 9-{[1(R)-hydroxymethyl-2(S)-cyclohexyl]methyl}guanine]
- IC50 (2 mM labeled thymidine, 5 mM ATP, pH 7.5, read-out: IC50 (concentration of inhibitor resulting in 50% inhibition of enzyme)): ~100 nM
- activity as an inhibitor of herpes thymidine kinase relative to its enantiomer (compared with its enantiomer): substantially more active
- inhibition of herpes thymidine kinase (in words) (first principal finding): potent inhibitor
